Laboratory results: patent US20260001928A1 (CORTERIA PHARMACEUTICALS, priority 2022, published 2026)
*1 amine or outer side, *2 acyl side, *3 side chain or, on linkers, in order; H or OH if unused. Where a SMILES comes first, the peptide text is derived from it. Side-chain parts run from the residue outwards. [ ]: non-standard residue; d: D form. The star is where a group is joined. C18 diacid = O=C(O)CCCCCCCCCCCCCCCCC(=O)*; C16 diacid = O=C(O)CCCCCCCCCCCCCCC(=O)*; γGlu = O=C(O)[C@H](CCC(=O)[*:2])N[*:1]; Ac3c = NC1(C(=O)O)CC1; Aib = CC(C)(N)C(=O)O

Key:
[1] = In vitro subcutaneous tissue supernatant (SCts) stability and metabolite identification, rat; format: in vitro ADME; parameters: remaining at 2 h: dose or concentration left out as unconfirmed; conditions: male, Sprague Dawley; rat subcutaneous tissue supernatant (SCts), 37° C, 2 h
Method: In vitro metabolic stability in subcutaneous tissue supernatant (SCts) was studied in male Sprague Dawley rats. Test compounds were incubated […] for 2 hours at 37° C.
Software aided in vitro metabolite identification on SCts stability samples was performed using either Metabolite Pilot (Sciex) or Biopharma Finder (Thermo). In addition, metabolite identification using Metabolite Pilot was performed on plasma samples of Comp Y following SC administration to rat at 1 mg/kg.

[2] = molecular target: T1, human CRF2a receptor (Homo sapiens, UniProt Q13324); assay: Activity at human CRF2a receptor, cAMP functional assay in TeloHEAC cells; format: cell-based; conditions: TeloHEAC cells stably expressing human CRF2a receptor, relative to urocortin 2 (100 nM = 100%)
T1 construct: expressed in transfected cells; host or cells: TeloHEAC cells
T1 sequence (Q13324 1-411): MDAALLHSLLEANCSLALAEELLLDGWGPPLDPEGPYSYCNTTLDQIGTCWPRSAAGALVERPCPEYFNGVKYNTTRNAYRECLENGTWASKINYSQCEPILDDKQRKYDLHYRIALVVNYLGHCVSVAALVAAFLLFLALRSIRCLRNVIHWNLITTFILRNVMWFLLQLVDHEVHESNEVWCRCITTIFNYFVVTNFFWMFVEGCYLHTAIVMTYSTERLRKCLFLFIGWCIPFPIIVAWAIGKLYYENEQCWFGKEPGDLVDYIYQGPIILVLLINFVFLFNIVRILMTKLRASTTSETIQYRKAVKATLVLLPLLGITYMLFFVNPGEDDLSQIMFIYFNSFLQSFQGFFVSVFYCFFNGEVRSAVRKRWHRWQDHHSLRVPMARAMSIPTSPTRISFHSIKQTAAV
How it was run: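 cAMP accumulation was measured by HTRF 665/620 nm ratio after 30 min at 37° C compound exposure (16 twofold dilutions) of CRF2a-expressing TeloHEAC cells, 10000/well, in HEPES-buffered HBSS plus IBMX. Activity was normalised to urocortin 2 at 100 nM (100%), and EC50 was the concentration giving half-maximal activation.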

[3] = tested on: Sprague Dawley rats; assay: Effect on systolic blood pressure, telemetry in Sprague Dawley rats; format: in vivo, rat; conditions: 0.1 mg/kg SC; for Systolic blood pressure (Mean) % change from baseline, 8 h / Systolic blood pressure (Mean) % change from baseline, 12 h / Systolic blood pressure (Mean) % change from baseline, 24 h: n=2; for Duration of action: last time point with an effect on BP still observed
How it was run: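 Values are % change from a 1 h pre-dose baseline in systolic pressure, tracked by telemetry for up to 48 hours after a single 0.1 mg/kg subcutaneous dose. Rats (Sprague Dawley, n=2 per peptide) carried aortic catheters and recovered at least 10 days post-surgery; duration of action marks the last time point still showing an effect.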

[4] = molecular target: T2, CFR1R receptor (Homo sapiens, UniProt P34998); assay: Activity at anti-target CFR1R receptor, cAMP assay in CRF1R-overexpression CHO-K1 cells; format: cell-based; conditions: 100% = Sauvagine at 100 nM; for EC50: cAMP
T2 construct: host or cells: CHO-K1 (clone 2)
T2 sequence (P34998 24-415): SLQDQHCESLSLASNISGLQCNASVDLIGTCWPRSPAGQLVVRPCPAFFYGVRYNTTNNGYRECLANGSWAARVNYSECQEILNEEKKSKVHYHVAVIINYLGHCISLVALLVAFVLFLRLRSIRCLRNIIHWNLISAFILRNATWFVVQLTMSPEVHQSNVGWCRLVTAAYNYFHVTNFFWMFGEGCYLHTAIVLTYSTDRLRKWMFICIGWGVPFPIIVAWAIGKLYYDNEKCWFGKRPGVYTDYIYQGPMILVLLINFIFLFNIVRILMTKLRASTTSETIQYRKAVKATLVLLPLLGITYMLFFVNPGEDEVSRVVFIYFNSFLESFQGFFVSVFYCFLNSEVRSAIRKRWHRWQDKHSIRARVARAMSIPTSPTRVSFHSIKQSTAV
How it was run: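 Grow clone 2 to near confluence at 37° C. under 5% CO2 in F12 (Hams) with 10% FBS and G418, harvest, and freeze in 10% DMSO. Thaw and plate at 4000 cells/well. Then proceed per the TeloHAEC method, normalising to Sauvagine 100 nM as maximum.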

[5] = Chemical stability in buffer (pH 7.4 / pH 4.5), % purity loss; format: physicochemical; conditions: 40° C. vs 5° C., 14 or 28 days; for Buffer stability pH 7.4 % purity loss: 100 mM phosphate buffer pH 7.4
How it was run: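 LC-UV gave % loss after 14 or 28 days of storage at 5 °C or 40 °C. Samples were diluted supernatants from compound incubated 1 h at room temperature at 10 mg/mL target, in 100 mM acetate pH 4.5 or 100 mM phosphate pH 7.4.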

Row | SMILES | remaining at 2 h [1] [%] | EC50 [2] [nM] | Systolic blood pressure (Mean) % change from baseline, 8 h [3] [%] | Systolic blood pressure (Mean) % change from baseline, 12 h [3] [%] | Systolic blood pressure (Mean) % change from baseline, 24 h [3] [%] | Duration of action [3] [h] | Emax (% I) [4] [% I] | EC50 [4] [nM] | Buffer stability pH 7.4 % purity loss [5] | Buffer stability pH 4.5 % purity loss ([5]; 100 mM acetate buffer pH 4.5) [%]
1 | CC[C@H](C)[C@H](NC(C)=O)C(=O)N[C@H](C(=O)N[C@@H](CC(C)C)C(=O)N[C@@H](CO)C(=O)N[C@@H](CC(C)C)C(=O)N[C@@H](CC(=O)O)C(=O)N[C@@H](C(=O)N1CCC[C@H]1C(=O)N[C@H](C(=O)N[C@@H](CCCCN)C(=O)N[C@@H](CC(C)C)C(=O)N[C@@H](CCCCNC(=O)CC[C@H](NC(=O)CCCCCCCCCCCCCCC(=O)O)C(=O)O)C(=O)N[C@@H](CCCCN)C(=O)N[C@H](C(=O)N[C@@H](CC(C)C)C(=O)N[C@@H](CC(C)C)C(=O)N[C@@H](CCC(=O)O)C(=O)N[C@@H](CCC(N)=O)C(=O)N[C@@H](CCC(=O)O)C(=O)N[C@@H](C)C(=O)N[C@@H](CCC(N)=O)C(=O)N[C@@H](CCCCN)C(=O)N[C@@H](CCCCN)C(=O)N[C@@H](CCC(N)=O)C(=O)N[C@@H](CCCNC(=N)N)C(=O)N[C@@H](CCC(=O)O)C(=O)N[C@@H](CCC(N)=O)C(=O)N[C@@H](C)C(=O)N[C@@H](CCC(=O)O)C(=O)N[C@H](C(=O)N[C@@H](CC(N)=O)C(=O)NC(C)(C)C(=O)N[C@@H](CCC(N)=O)C(=O)N[C@H](C(=O)N[C@@H](CC(C)C)C(=O)N[C@@H](C)C(=O)N[C@@H](CCC(N)=O)C(=O)N[C@H](C(N)=O)C(C)C)[C@@H](C)CC)[C@@H](C)O)[C@@H](C)CC)[C@@H](C)CC)C(C)C)C(C)C [compound 165] (Ac-IVLSLD[dV]PIKLK([γGlu-C16 diacid])KILLEQEAQKKQREQAETN[Aib]QILAQV-NH2) | 72 | 0.64 | −30 | −20 | 2 | 23 | 14 | > 250 | 0.0/Not Tested % | 
2 | CC[C@H](C)[C@H](NC(C)=O)C(=O)N[C@H](C(=O)N[C@@H](CC(C)C)C(=O)N[C@@H](CO)C(=O)N[C@@H](CC(C)C)C(=O)N[C@@H](CC(=O)O)C(=O)N[C@@H](C(=O)N1CCC[C@H]1C(=O)N[C@H](C(=O)N[C@@H](CCCCN)C(=O)N[C@@H](CC(C)C)C(=O)N[C@@H](CCCCNC(=O)CC[C@H](NC(=O)CCCCCCCCCCCCCCC(=O)O)C(=O)O)C(=O)N[C@@H](CCCCN)C(=O)N[C@H](C(=O)N[C@@H](CC(C)C)C(=O)N[C@@H](CC(C)C)C(=O)N[C@@H](CCC(=O)O)C(=O)N[C@@H](CCC(N)=O)C(=O)N[C@@H](CCC(=O)O)C(=O)N[C@@H](CCCCN)C(=O)N[C@@H](CCC(N)=O)C(=O)N[C@@H](CCCCN)C(=O)N[C@@H](CCCCN)C(=O)N[C@@H](CCC(N)=O)C(=O)N[C@@H](CCCNC(=N)N)C(=O)N[C@@H](CCC(=O)O)C(=O)N[C@@H](CCC(N)=O)C(=O)N[C@@H](C)C(=O)N[C@@H](CCC(=O)O)C(=O)N[C@H](C(=O)N[C@@H](CC(N)=O)C(=O)NC(C)(C)C(=O)N[C@@H](CCC(N)=O)C(=O)N[C@H](C(=O)N[C@@H](CC(C)C)C(=O)N[C@@H](C)C(=O)N[C@@H](CCC(N)=O)C(=O)N[C@H](C(N)=O)C(C)C)[C@@H](C)CC)[C@@H](C)O)[C@@H](C)CC)[C@@H](C)CC)C(C)C)C(C)C [compound 40] (Ac-IVLSLD[dV]PIKLK([γGlu-C16 diacid])KILLEQEKQKKQREQAETN[Aib]QILAQV-NH2) | 79 | 0.25 | −30 | −18 | 7 | 23 | 0 | > 250 | 0/nd ^ % | 
3 | CC[C@H](C)[C@H](NC(C)=O)C(=O)N[C@H](C(=O)N[C@@H](CC(C)C)C(=O)N[C@@H](CO)C(=O)N[C@@H](CC(C)C)C(=O)N[C@@H](CC(=O)O)C(=O)N[C@@H](C(=O)N1CCC[C@H]1C(=O)N[C@H](C(=O)N[C@@H](CCCCN)C(=O)N[C@@H](CC(C)C)C(=O)N[C@@H](CCCCNC(=O)CC[C@H](NC(=O)CCCCCCCCCCCCCCCCC(=O)O)C(=O)O)C(=O)N[C@@H](CCCCN)C(=O)N[C@H](C(=O)N[C@@H](CC(C)C)C(=O)N[C@@H](CC(C)C)C(=O)N[C@@H](CCC(=O)O)C(=O)N[C@@H](CCC(N)=O)C(=O)N[C@@H](CCC(=O)O)C(=O)N[C@@H](CCCCN)C(=O)N[C@@H](CCC(N)=O)C(=O)N[C@@H](CCCCN)C(=O)N[C@@H](CCCCN)C(=O)N[C@@H](CCC(N)=O)C(=O)N[C@@H](CCCNC(=N)N)C(=O)N[C@@H](CCC(=O)O)C(=O)N[C@@H](CCC(N)=O)C(=O)N[C@@H](C)C(=O)N[C@@H](CCC(=O)O)C(=O)N[C@H](C(=O)N[C@@H](CC(N)=O)C(=O)NC1(C(=O)N[C@@H](CCC(N)=O)C(=O)N[C@H](C(=O)N[C@@H](CC(C)C)C(=O)N[C@@H](C)C(=O)N[C@@H](CCC(N)=O)C(=O)N[C@H](C(N)=O)C(C)C)[C@@H](C)CC)CC1)[C@@H](C)O)[C@@H](C)CC)[C@@H](C)CC)C(C)C)C(C)C [compound 136] (Ac-IVLSLD[dV]PIKLK([γGlu-C18 diacid])KILLEQEKQKKQREQAETN[Ac3c]QILAQV-NH2) | 78 | 0.16 |  |  |  |  | 5 | > 250 | 24.3% | 0.0
4 | CC[C@H](C)[C@H](NC(C)=O)C(=O)N[C@H](C(=O)N[C@@H](CC(C)C)C(=O)N[C@@H](CO)C(=O)N[C@@H](CC(C)C)C(=O)N[C@@H](CC(=O)O)C(=O)N[C@@H](C(=O)N1CCC[C@H]1C(=O)N[C@H](C(=O)N[C@@H](CCCCN)C(=O)N[C@@H](CC(C)C)C(=O)N[C@@H](CCCCNC(=O)CC[C@H](NC(=O)CCCCCCCCCCCCCCC(=O)O)C(=O)O)C(=O)N[C@@H](CCCCN)C(=O)N[C@H](C(=O)N[C@@H](CC(C)C)C(=O)N[C@@H](CC(C)C)C(=O)N[C@@H](CCC(=O)O)C(=O)N[C@@H](CCC(N)=O)C(=O)N[C@@H](CCC(=O)O)C(=O)N[C@@H](CCCCN)C(=O)N[C@@H](CCC(N)=O)C(=O)N[C@@H](CCCCN)C(=O)N[C@@H](C)C(=O)N[C@@H](CCC(N)=O)C(=O)N[C@@H](CCCNC(=N)N)C(=O)N[C@@H](CCC(=O)O)C(=O)N[C@@H](CCC(N)=O)C(=O)N[C@@H](C)C(=O)N[C@@H](CCC(=O)O)C(=O)N[C@H](C(=O)N[C@@H](CC(N)=O)C(=O)NC(C)(C)C(=O)N[C@@H](CCC(N)=O)C(=O)N[C@H](C(=O)N[C@@H](CC(C)C)C(=O)N[C@@H](C)C(=O)N[C@@H](CCC(N)=O)C(=O)N[C@H](C(N)=O)C(C)C)[C@@H](C)CC)[C@@H](C)O)[C@@H](C)CC)[C@@H](C)CC)C(C)C)C(C)C [compound 161] (Ac-IVLSLD[dV]PIKLK([γGlu-C16 diacid])KILLEQEKQKAQREQAETN[Aib]QILAQV-NH2) | 59 | 0.32 |  |  |  |  | 3 | > 250 | 0.6/Not Tested % | 
